# Where no end group is shown, it is not given here.
# Columns and labels:
# ROS 17/2.8 cells = molecular target: T1, ROS 17/2.8 cells (Rattus norvegicus, UniProt P25961); conditions: position-20 substitutions in PTH(1-31)NH2; cited from earlier work
# T1 construct: ROS 17/2.8 cells are rat osteosarcoma cells and express the endogenous PTHR; host or cells: ROS 17/2.8 cells
# T1 sequence (P25961 27-591): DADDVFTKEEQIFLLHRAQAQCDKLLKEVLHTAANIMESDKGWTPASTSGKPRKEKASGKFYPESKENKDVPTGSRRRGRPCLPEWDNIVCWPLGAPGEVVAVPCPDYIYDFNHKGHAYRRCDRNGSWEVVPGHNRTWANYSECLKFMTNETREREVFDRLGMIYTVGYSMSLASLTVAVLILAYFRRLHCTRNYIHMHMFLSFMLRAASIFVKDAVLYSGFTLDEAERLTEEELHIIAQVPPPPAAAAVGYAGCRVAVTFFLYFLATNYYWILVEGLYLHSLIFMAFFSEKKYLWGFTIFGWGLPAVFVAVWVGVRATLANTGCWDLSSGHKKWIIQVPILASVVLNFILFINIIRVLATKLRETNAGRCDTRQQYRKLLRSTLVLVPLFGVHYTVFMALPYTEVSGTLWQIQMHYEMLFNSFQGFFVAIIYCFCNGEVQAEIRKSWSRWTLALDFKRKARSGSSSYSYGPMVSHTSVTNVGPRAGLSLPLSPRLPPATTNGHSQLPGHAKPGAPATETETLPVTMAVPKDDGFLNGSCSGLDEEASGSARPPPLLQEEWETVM
# [1] = molecular target: T2, endogenous PTHR in ROS 17/2.8 cells (Rattus norvegicus, UniProt P25961); assay: Competition binding in intact ROS 17/2.8 cells with 125I-PTH(1-34) tracer; conditions: 125I-[Nle8,21,Tyr34]rPTH(1-34)NH2 tracer
# T2 construct: ROS 17/2.8 cells are rat osteosarcoma cells and express the endogenous PTHR; endogenous in cells; host or cells: ROS 17/2.8 rat osteosarcoma cells
# T2 sequence (P25961 27-591): T1 sequence (P25961 27-591)
# Procedure: Cell Culture—Cells were cultured at 37° C. in a humidified atmosphere containing 5% CO2 in Dulbecco's modified Eagle's medium (DMEM), supplemented with 10% fetal bovine serum (HyClone, Logan Utah), 100 units/ml penicillin G, and 100 ug/ml streptomycin penicillin G/streptomycin (Invitrogen Corp. Carlsbad, Calif.). For binding and cAMP studies performed with the intact PTHR, the HKRK-B7 and ROS 17/2.8 cell lines were used. HKRK-B7 cells are derived from the porcine kidney cell line LLC-PK1 and express, via stable DNA transfection, the wild-type human PTHR at an approximate surface density of 950,000 PTH-binding sites per cell. […]
# Receptor binding—Binding to the wild-type human PTHR in intact HKRK-B7 cells and ROS 17/2.8 cells was assessed using ^125I-PTH(1-34) as a tracer radioligand, as described (Shimizu, M., (2001) Endocrinology 142:3068-3074). […] The binding mixture was then removed by aspiration, the cells were rinsed three times with binding buffer, lysed in 1 M NaOH, and the entire lysate was counted for gamma-irradiation in a gamma counter. Binding to PTHR-delNt in COS-7 cell membranes was assessed in 96-well, vacuum filtration plates (Multiscreen-Durapore HV, […] membranes, Millipore Corp., Millford, Mass.) using ^125I-[Aib^1,3,M]PTH(1-15)NH2 as a tracer radioligand, as described (Dean, T., (2006) Mol Endocrinol 20:931-942). […]
Substance,reduction of cAMP-stimulating potency (ROS 17/2.8 cells),IC50 [1] [µM]
SVSEIQLMHNLGKHLNSMEKVEWLRKKLQDV-NH2 [Arg^20→Lys],abolished activity altogether,
SVSEIQLMHNLGKHLNSMEEVEWLRKKLQDV [Arg^20→Glu],,5.8

# Reference: patent publication US8143374B2, “Polypeptide derivatives of parathyroid hormone (PTH)” (The General Hospital Corporation, priority 2006, dated 2012)
